Patent US8633168B2, “Inhibitors of S-adenosyl-L-methionine decarboxylase” (Genzyme Corporation, priority 2007, dated 2014)
Read-outs that look alike come from different tables or passages of the source.

Tests used:
CYP2D6 = CYP2D6 (Homo sapiens, UniProt P10635); assay: Cytochrome P450 inhibition, CYP2D6
Description: (§1) This cytochrome P450 high throughput IC50 inhibition assay is utilized for screening potential inhibitors of the 5 major human CYP isozyme catalytic activities (CYP3A4, 2D6, 2C9, 2C19, and 1A2).

Mouse brain exposure = type: in vivo; conditions: for AUC / Kp: Table 3; for AUC: mouse brain; for Kp: mouse, read-out: Mouse Brain exposure compared with blood AUC (%)
Procedure: This was determined by harvesting brains at selected time points, weighing and extracting total tissue homogenate for LC/MS/MS analysis. The amount of test compound associated with the brain was calculated by subtracting that amount attributable to blood vessels (7%, times the blood exposure levels).

Mouse PK study = type: in vivo; conditions: for t/2 in mouse: Table 3
Procedure: The rodent PK study designs provide reliable estimation of PK parameters using fewer animals. Often two routes, PO and IV, were included in the rodent PK study protocols with three subjects in each dosing group (often PO at 10 mg/kg and IV at 3 mg/kg).

Schistosomes adult = assay: Screening against Schistosomes, adult; type: cell-based; conditions: Screening Data
CYP2C9 = CYP2C9 (Homo sapiens, UniProt P11712); assay: Cytochrome P450 inhibition, CYP2C9
Description: as §1

[1] = tested on: Trypanosoma brucei rhodesiense strain STIB 900; assay: Drug sensitivity assay against T. b. rhodesiense (Alamar blue); type: cell-based
Description: Trypanosoma brucei rhodesiense strain STIB 900, a clone of a population isolated in 1982 from a patient in Tanzania which is known to be susceptible to all currently used drugs was used in these assays. The bloodstream form trypomastigotes of this strain were maintained in supplemented Modified Eagle's Medium according to standard protocols (Hirumi H, Hirumi K, 1989. “Continuous cultivation of Trypanosoma brucei blood stream forms in a medium containing a low concentration of serum protein without feeder cell layers”. J Parasitol 75: 985-9).
Drug sensitivity assays were performed in sterile 96-well microtiter plates, with or without serial drug dilutions. The compounds were tested at 7 concentrations (drug concentration ranging from 90 μg/ml to 0.123 μg/ml in 3-fold dilutions). The highest concentration for the test compounds was 90 μg/ml. Each drug is tested in duplicate. After 72 hours of incubation the plates were inspected microscopically to assure growth of the controls to determine the minimum inhibitory concentration (MIC), i.e., the lowest drug concentration at which no trypanosomes with normal morphology and motility can be seen compared to control wells. Cell viability is measured by Alamar blue staining and IC50 values were calculated.
(§2) The bloodstream form trypomastigotes of the three strains are maintained according to standard protocols established at STI.
(§3) Drug sensitivity assays are performed in sterile 96-well microtiter plates, with or without serial drug dilutions. The highest concentration for the test compounds is 90 μg/ml. Each drug is tested in duplicate. After 72 hours of incubation the plates are inspected microscopically to assure growth of the controls to determine the minimum inhibitory concentration (MIC), i.e., the lowest drug concentration at which no trypanosomes with normal morphology and motility can be seen compared to control wells. Cell viability is measured by Alamar blue staining and IC50 values are calculated.
The preliminary screen used T. b. rhodesiense. The compounds were tested at 7 concentrations (drug concentration ranging from 90 μg/ml to 0.123 μg/ml in 3-fold dilutions).

[2] = Plasma protein binding (RED), mouse; type: in vitro ADME
Procedure: (§4) Rapid Equilibrium Dialysis device (RED) is a 96-well formatted dialysis with disposable inserts and Teflon base design providing short incubation time. The membrane in RED physically separates of bound and free drug. After 4 hr incubation at 37° C., drug concentrations at both plasma (e.g., human, rat, dog, monkey, mouse) and pH 7.4 PBS buffer sides was quantitated by LC/MS/MS and % bound drug in plasma was calculated.

[3] = Hepatocyte stability, rat; type: in vitro ADME; conditions: for Hepatocyte stability (CL) rat: Table 2; for CLint scaled: hepatocytes, Example 12 chart
Procedure: (§5) Liver microsomes and hepatocytes represent an in vitro surrogate for assessing the phase I/II metabolic stability of new discovery leads. Following the incubation of the compounds with microsomes or hepatocytes of different species (e.g., human, rat, dog, monkey, mouse), the samples were transferred to 96 well plates for quantitation using LC/MS/MS. The % of compound remaining was measured and used to calculate clearance and % hepatic blood flow.

L. donovani (axenic) = assay: Screening against L. donovani (axenic); type: cell-based; conditions: Leishmania donovani; Screening Data
CYP2C19 = CYP2C19 (Homo sapiens, UniProt P33261); assay: Cytochrome P450 inhibition, CYP2C19
Description: as §1

CYP3A4 = CYP3A4 (Homo sapiens, UniProt P08684); assay: Cytochrome P450 inhibition, CYP3A4
Description: as §1

T. cruzi = assay: Cell-based screening against T. cruzi; conditions: Trypanosoma cruzi; Screening Data
T. b. brucei = assay: Cell-based screening against T. b. brucei; design: species or system Trypanosoma brucei brucei; conditions: for IC50: Screening Data, two values per compound
Procedure: as §2, §3
Active compounds (IC50<0.2 μg/ml) are tested against the Trypanosoma brucei gambiense STIB 930 and the multi-drug resistant T. b. brucei STIB 950 following the same protocol as described above.
This example provides data relating to the biological screening results. MDL 73811 and selected new compounds 1-7 were tested against a variety of cell-based organisms and enzymes and the IC50 measured. In vitro ADME profiles were also obtained. Solubility, permeability, microsomal/hepatocyte stability, cychrome P450 inhibition and plasma protein binding characteristics were probed for each of the compounds. The methodology for these tests are described in previous paragraphs. The results are summarized in the following 2 charts.

[4] = Microsomal stability, rat; type: in vitro ADME; conditions: for Microsomal stability (CL) rat: Table 2; for CLint scaled: Example 12 chart
Procedure: as §5

[5] = Plasma protein binding (RED), human; type: in vitro ADME
Procedure: as §4

[6] = read-out: CYP IC50 2D6, Example 12 chart
[7] = read-out: CYP IC50 2C9, Example 12 chart
[8] = Screening Data, read-out: IC50 T. b. rhod.
[9] = Table 1, 72 hours incubation, Alamar blue, read-out: IC50 against T. b. rhodesiense (ug/mL) by STI
[10] = Table 2, read-out: IC50 against T. b. rhodesiense (ug/mL) by STI
[11] = Table 3, read-out: IC50 against T. brucei rhodesiense
[12] = read-out: CYP IC50 2C19, Example 12 chart
[13] = plasma, pH 7.4, Example 12 chart, mouse
[14] = read-out: CYP IC50 3A4, Example 12 chart

Chain of CYP3A4 (P08684 whole entry): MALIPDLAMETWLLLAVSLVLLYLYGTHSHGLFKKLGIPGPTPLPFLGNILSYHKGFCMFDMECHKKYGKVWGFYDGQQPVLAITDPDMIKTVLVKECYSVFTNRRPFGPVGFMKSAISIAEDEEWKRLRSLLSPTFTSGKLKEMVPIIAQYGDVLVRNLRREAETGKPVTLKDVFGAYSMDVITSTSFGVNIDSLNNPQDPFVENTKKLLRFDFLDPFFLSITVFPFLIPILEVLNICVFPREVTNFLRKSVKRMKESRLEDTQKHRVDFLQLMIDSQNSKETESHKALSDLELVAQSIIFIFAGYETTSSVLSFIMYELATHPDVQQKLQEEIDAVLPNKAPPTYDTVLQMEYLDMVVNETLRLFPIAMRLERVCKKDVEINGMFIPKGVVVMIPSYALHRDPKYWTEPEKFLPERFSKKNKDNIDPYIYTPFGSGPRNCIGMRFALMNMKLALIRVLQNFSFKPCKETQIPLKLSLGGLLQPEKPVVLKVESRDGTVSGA
Chain of CYP2D6 (P10635 whole entry): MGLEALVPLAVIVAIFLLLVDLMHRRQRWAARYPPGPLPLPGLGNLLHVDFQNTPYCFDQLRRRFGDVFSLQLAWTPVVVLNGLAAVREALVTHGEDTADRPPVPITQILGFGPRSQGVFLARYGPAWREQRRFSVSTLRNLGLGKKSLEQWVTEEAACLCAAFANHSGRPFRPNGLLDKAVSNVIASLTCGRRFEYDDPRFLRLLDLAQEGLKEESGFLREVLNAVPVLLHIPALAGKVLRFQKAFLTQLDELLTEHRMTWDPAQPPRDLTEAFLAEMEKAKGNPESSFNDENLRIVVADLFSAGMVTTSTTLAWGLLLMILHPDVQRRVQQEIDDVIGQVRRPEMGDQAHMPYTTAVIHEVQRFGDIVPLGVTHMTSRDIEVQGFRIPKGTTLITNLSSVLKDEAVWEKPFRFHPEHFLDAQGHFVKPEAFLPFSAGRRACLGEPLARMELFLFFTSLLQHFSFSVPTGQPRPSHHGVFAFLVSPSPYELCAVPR
Chain of CYP2C9 (P11712 whole entry): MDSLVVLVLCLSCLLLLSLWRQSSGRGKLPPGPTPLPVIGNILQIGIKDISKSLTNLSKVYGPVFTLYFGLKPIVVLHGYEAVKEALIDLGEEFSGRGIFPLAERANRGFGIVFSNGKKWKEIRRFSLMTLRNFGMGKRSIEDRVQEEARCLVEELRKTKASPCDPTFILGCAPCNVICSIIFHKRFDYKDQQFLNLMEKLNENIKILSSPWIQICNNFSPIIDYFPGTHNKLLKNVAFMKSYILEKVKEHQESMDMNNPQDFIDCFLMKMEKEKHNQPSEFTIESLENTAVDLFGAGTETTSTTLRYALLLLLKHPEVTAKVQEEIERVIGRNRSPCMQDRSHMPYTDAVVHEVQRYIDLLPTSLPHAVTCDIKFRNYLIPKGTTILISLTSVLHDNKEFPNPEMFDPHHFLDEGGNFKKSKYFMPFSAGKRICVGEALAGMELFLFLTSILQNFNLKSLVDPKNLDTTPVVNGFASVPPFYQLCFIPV
Chain of CYP2C19 (P33261 whole entry): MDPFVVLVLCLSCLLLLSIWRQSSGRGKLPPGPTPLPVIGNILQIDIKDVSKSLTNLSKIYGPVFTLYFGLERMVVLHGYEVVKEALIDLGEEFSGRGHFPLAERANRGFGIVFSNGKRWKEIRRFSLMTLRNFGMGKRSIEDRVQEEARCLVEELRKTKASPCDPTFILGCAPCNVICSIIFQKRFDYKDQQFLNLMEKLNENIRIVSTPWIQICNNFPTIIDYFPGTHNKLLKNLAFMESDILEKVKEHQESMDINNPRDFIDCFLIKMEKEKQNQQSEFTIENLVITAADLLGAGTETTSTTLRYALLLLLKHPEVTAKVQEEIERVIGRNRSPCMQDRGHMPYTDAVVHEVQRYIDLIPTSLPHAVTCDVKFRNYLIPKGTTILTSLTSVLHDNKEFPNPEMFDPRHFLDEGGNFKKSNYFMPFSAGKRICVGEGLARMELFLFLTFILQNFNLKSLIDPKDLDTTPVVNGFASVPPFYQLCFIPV

SMILES	IC50 (CYP2D6) [µM]	IC50 (CYP2D6; [6]) [µM]	t/2 in mouse (Mouse PK study) [h]	IC50 (Schistosomes adult) [µM]	IC50 (CYP2C9) [µM]	IC50 (CYP2C9; [7]) [µM]	IC50 [1, 8] [nM]	IC50 [1, 9] [µg/mL]	IC50 [1, 10] [µg/mL]	Hepatocyte stability (CL) rat [3] [mL/min/kg]	CLint scaled [3] [mL/min/kg]	IC50 (L. donovani (axenic)) [µM]	IC50 (CYP2C19) [µM]	IC50 (CYP2C19; [12]) [µM]	IC50 (CYP3A4) [µM]	IC50 (T. cruzi) [µM]	IC50 (T. b. brucei; Trypanosoma brucei) [nM]	Microsomal stability (CL) rat [4] [mL/min/kg]	Plasma Protein Binding % human ([5]; Example 12 chart, human) [%]	IC50 (CYP3A4; [14]) [µM]	further results
CN(C/C=C\CN)CC1OC(n2cnc3c(N)ncnc32)C(O)C1O (centres unmarked) [MDL-73811, reference compound]	> 5	> 5	2.48	> 10	> 5	> 5	11	0.004	0.004	<11	< 3.5	> 85	> 5	> 5	> 5	19.4	171	<11	72.9	–	AUC (Mouse brain exposure; in vivo): 280 ng·h/mL; Kp (Mouse brain exposure; in vivo): 0.0134; IC50 [1, 11]: 0.004 µg/mL; Plasma protein binding (%) mouse ([2]; Example 12 chart, mouse): 69.8%; fraction unbound ([2]; pH 7.4, Table 2, mouse plasma): 0.302; IC50 (CYP3A4; human): > 5 µM; IC50 (T. b. brucei): 257 nM; CLint scaled ([4]; microsomes): < 7.7 mL/min/kg; fraction unbound ([5]; pH 7.4, Table 2, human plasma): 0.271
CN(C/C=C\CN)C[C@H]1O[C@@H](n2cnc3c(N)nc(Cl)nc32)[C@H](O)[C@@H]1O [Compound 3]	> 5	> 5	1.66	> 10	> 5	> 5	1760	0.676	0.676	<11	< 3.5	> 85	> 5	> 5	> 5	> 85	8570	<11	39	> 5	AUC (Mouse brain exposure): 170 ng·h/mL; Kp (Mouse brain exposure; brain relative to blood): 0.0077; Plasma protein binding (%) mouse ([2]; Table 2, mouse plasma): 42.2%; fraction unbound at 4 hr [2, 13]: 0.578; IC50 (T. b. brucei): 5960 nM; CLint scaled ([4]; liver microsomes): < 7.7 mL/min/kg; fraction unbound at 4 hr ([5]; pH 7.4, Table 2, human plasma): 0.61
CN(C/C=C\CN)C[C@H]1O[C@@H](n2cnc3c(N)ncnc32)[C@@H](F)[C@@H]1O [Compound 2]	> 5	> 5	–	> 10	> 5	> 5	2590	0.908	0.908	<11	< 3.5	> 85	> 5	> 5	> 5	> 85	> 14000	<11	–	> 5	logD (LogD): -1.2; Plasma protein binding (%) mouse ([2]; Table 2, mouse plasma): 37.2%; fraction unbound at 4 hr [2, 13]: 0.628; CLint scaled ([4]; liver microsomes): < 7.7 mL/min/kg; Plasma Protein Binding % human ([5]; Table 2, human plasma): 32.2%; fraction unbound at 4 hr ([5]; plasma, pH 7.4, Example 12 chart, human): 0.678
Cc1nc2c(N)ncnc2n1[C@@H]1O[C@H](CN(C)C/C=C\CN)[C@@H](O)[C@H]1O (stereo in doubt) [Compound 4]	> 5	> 5	7.43	> 10	> 5	> 5	1	0.0004	0.0004	<11	< 3.5	> 85	> 5	> 5	> 5	> 85	27	<11	41.2	> 5	AUC (Mouse brain exposure): 1180 ng·h/mL; Kp (Mouse brain exposure; brain relative to blood): 0.066; percentage of brain blood barrier penetration (compared with MDL-73811) (Mouse brain exposure; text b82): higher percentage of brain blood barrier penetration; mouse brain exposure, fold greater than for MDL 73811 (Mouse brain exposure; vs MDL73811): ~4 fold; t/2, fold greater than that for MDL-73811 (Mouse PK study; vs MDL-73811): ~3 fold; logD (LogD; Example 12 chart): −1.4; IC50 [1, 11]: 0.0004 µg/mL; IC50 ([1]; read-out: IC50 against T. b. rhodesiense): 0.0004 µg/mL; Plasma protein binding (%) mouse ([2]; Example 12 chart, mouse): 35.7%; fraction unbound at 4 hr ([2]; pH 7.4, Table 2, mouse plasma): 0.643; potency against T. b. brucei, fold greater than that of MDL73811 (T. b. brucei; vs MDL73811): 10 fold; CLint scaled ([4]; liver microsomes): < 7.7 mL/min/kg; protein binding relative to MDL73811 ([5]; compared with MDL73811 (human and mouse plasma in Table 2)): approximately half; fraction unbound at 4 hr ([5]; pH 7.4, Table 2, human plasma): 0.588
